According to ChEMBL document CHEMBL6127131, “Design, Synthesis, and Biological Evaluation of New Selective PDE4 Inhibitors for Topical Treatment of Psoriasis” (J Med Chem, 2024):
Each block holds one compound with its values, some of them ahead of it. Calls of active or inactive are those of the source. No cut-off for these calls is given here.

Experiments:
[1] = target: T1, 3',5'-cyclic-AMP phosphodiesterase 4D (Homo sapiens, UniProt Q08499); experiment: Inhibition of PDE4D7 (unknown origin)
Mus musculus [2] = experiment: Antiinflammatory activity against imiquimod-induced psoriasis in BALB/c mouse model assessed as reduction in IL-17A protein level at 1.2% administration as ointment pretreated with IMQ for 4 hrs followed by compound addition once daily from day 2 to 8 by ELISA; type: functional, organism-based; conditions: time 7.0 day
RAW264.7 [3] = experiment: Upregulation of p-CREB1/CREB1 protein ratio in mouse RAW264.7 cells at 5 to 20 uM preincubated for 12 hrs followed by LPS stimulation for 4 hrs by Western blotting analysis; type: functional, cell-based; conditions: dose 5-20 µM, time 16.0 hrs
Mus musculus [4] = experiment: Antiinflammatory activity against imiquimod-induced psoriasis in BALB/c mouse model assessed as reduction in skin thickness at 0.3 to 1.2% administration as ointment pretreated with IMQ for 4 hrs followed by compound addition once daily from day 2 to 8 by H and E staining based assay; type: functional, organism-based; conditions: dose 0.3-1.2 %, time 7.0 day
[5] = Clearance in ICR(CD-1) mouse at 5 mg/kg, iv measured upto 24 hrs by LC-MS/MS analysis; type: ADME, organism-based; conditions: in vivo
[6] = Metabolic stability in rat liver microsomes assessed as half-life preincubated for 2 hrs followed by NADPH regenerating agent addition and measured upto 4 hrs by LC-MS analysis; type: ADME, Microsome; conditions: time < 6 hrs
Mus musculus [7] = experiment: Antiinflammatory activity against imiquimod-induced psoriasis in BALB/c mouse model assessed as reduction in spleen enlargement at 0.3 to 1.2% administration as ointment pretreated with IMQ for 4 hrs followed by compound addition once daily from day 2 to 8; type: functional, organism-based; conditions: dose 0.3-1.2 %, time 7.0 day
RAW264.7 [8] = experiment: Upregulation of EPAC1 protein expression in mouse RAW264.7 cells at 5 to 20 uM preincubated for 12 hrs followed by LPS stimulation for 4 hrs by Western blotting analysis; type: functional, cell-based; conditions: dose 5-20 µM, time 16.0 hrs
Mus musculus [9] = experiment: Antiinflammatory activity against imiquimod-induced psoriasis in BALB/c mouse model assessed as reduction in IL-1beta protein level at 1.2% administration as ointment pretreated with IMQ for 4 hrs followed by compound addition once daily from day 2 to 8 by ELISA; type: functional, organism-based; conditions: time 7.0 day
RAW264.7 [10] = experiment: Downregulation of IL-1beta mRNA expression in LPS induced mouse RAW264.7 cells at 5 to 20 uM preincubated for 12 hrs followed by LPS stimulation for 4 hrs by RT-qPCR analysis; type: functional, cell-based; conditions: dose 5-20 µM, time 16.0 hrs
[11] = Tmax in ICR(CD-1) mouse at 10 mg/kg, po measured upto 24 hrs by LC-MS/MS analysis; type: ADME, organism-based; conditions: in vivo
[12] = Toxicity in BALB/c mouse assessed as body weight loss at 0.3 to 1.2% administration as ointment once a day from day 2 to 8; conditions: in vivo, topical_or_ocular, 168 h, dose 0.3-1.2 %, time 7 day
RAW264.7 [13] = experiment: Downregulation of IL-6 mRNA expression in LPS induced mouse RAW264.7 cells at 5 to 20 uM preincubated for 12 hrs followed by LPS stimulation for 4 hrs by RT-qPCR analysis; type: functional, cell-based; conditions: dose 5-20 µM, time 16.0 hrs
[14] = Cmax in ICR(CD-1) mouse at 10 mg/kg, po measured upto 24 hrs by LC-MS/MS analysis; type: ADME, organism-based; conditions: in vivo
[15] = target: 3',5'-cyclic-AMP phosphodiesterase 4A (Homo sapiens, UniProt P27815); experiment: Inhibition of PDE4A (unknown origin)
[16] = target: Cannabinoid receptor 1 (Homo sapiens) (UniProt P21554); experiment: Inhibition of CB1 (unknown origin) at 10 uM relative to control
[17] = Half-life in ICR(CD-1) mouse at 10 mg/kg, po measured upto 24 hrs by LC-MS/MS analysis; type: ADME, organism-based; conditions: in vivo
RAW264.7 [18] = experiment: Downregulation of TNFalpha mRNA expression in LPS induced mouse RAW264.7 cells at 5 to 20 uM preincubated for 12 hrs followed by LPS stimulation for 4 hrs by RT-qPCR analysis; type: functional, cell-based; conditions: dose 5-20 µM, time 16.0 hrs
[19] = AUC(0 to infinity) in ICR(CD-1) mouse at 5 mg/kg, iv measured upto 24 hrs by LC-MS/MS analysis; type: ADME, organism-based; conditions: in vivo
[20] = Drug concentration in ICR(CD-1) mouse blood at 1.2% administered topically and measured after 1 hr by LC-MS/MS analysis; type: ADME, tissue-based; conditions: topical or ocular, route top, read-out: Ct
[21] = Metabolic stability in human liver microsomes assessed as half-life preincubated for 2 hrs followed by NADPH regenerating agent addition and measured upto 4 hrs by LC-MS analysis; type: ADME, Microsome; conditions: time < 6 hrs
[22] = Metabolic stability in dog liver microsomes assessed as half-life preincubated for 2 hrs followed by NADPH regenerating agent addition and measured upto 4 hrs by LC-MS analysis; type: ADME, Canis lupus familiaris, Microsome; conditions: time < 6 hrs
[23] = Drug concentration in ICR(CD-1) mouse blood at 1.2% administered topically and measured after 2 hrs by LC-MS/MS analysis; type: ADME, tissue-based; conditions: topical or ocular, route top, read-out: Ct
[24] = AUC(0 to t) in ICR(CD-1) mouse at 5 mg/kg, iv measured upto 24 hrs by LC-MS/MS analysis; type: ADME, organism-based; conditions: in vivo
HaCaT = experiment: Anti-inflammatory activity against M5 induced human HaCaT cells assessed as reduction in TNFalpha secretion incubated for 24 hrs by ELISA; type: functional, cell-based
[25] = Half-life in ICR(CD-1) mouse at 5 mg/kg, iv measured upto 24 hrs by LC-MS/MS analysis; type: ADME, organism-based; conditions: in vivo
[26] = target: 5-hydroxytryptamine receptor 1B (Homo sapiens) (UniProt P28222); experiment: Inhibition of 5-HT1B (unknown origin) at 10 uM relative to control
RAW264.7 [27] = experiment: Anti-inflammatory activity against LPS induced mouse RAW264.7 cells assessed as reduction in TNFalpha secretion incubated for 24 hrs by ELISA; type: functional, cell-based; conditions: RAW264.7, 24 h
[28] = target: D(2) dopamine receptor (Homo sapiens) (UniProt P14416); experiment: Inhibition of D2S (unknown origin) at 10 uM relative to control
[29] = Apparent volume of distribution in ICR(CD-1) mouse at 5 mg/kg, iv measured upto 24 hrs by LC-MS/MS analysis; type: ADME, organism-based; conditions: in vivo, read-out: Vz
[30] = AUC(0 to t) in ICR(CD-1) mouse at 10 mg/kg, po measured upto 24 hrs by LC-MS/MS analysis; type: ADME, organism-based; conditions: in vivo
RAW264.7 [31] = experiment: Downregulation of IL-17A mRNA expression in LPS induced mouse RAW264.7 cells at 5 to 20 uM preincubated for 12 hrs followed by LPS stimulation for 4 hrs by RT-qPCR analysis; type: functional, cell-based; conditions: dose 5-20 µM, time 16.0 hrs
Mus musculus [32] = experiment: Antiinflammatory activity against imiquimod-induced psoriasis in BALB/c mouse model assessed as reduction in immune cell infiltration at 0.3 to 1.2% administration as ointment pretreated with IMQ for 4 hrs followed by compound addition once daily from day 2 to 8 by H and E staining based assay; type: functional, organism-based; conditions: dose 0.3-1.2 %, time 7.0 day
[33] = Initial plasma concentration in ICR(CD-1) mouse at 5 mg/kg, iv measured upto 24 hrs by LC-MS/MS analysis; type: ADME, organism-based
[34] = Oral bioavailability in ICR(CD-1) mouse at 10 mg/kg measured upto 24 hrs by LC-MS/MS analysis; type: ADME, organism-based; conditions: in vivo
Mus musculus [35] = organism: Mus musculus; experiment: Antiinflammatory activity against imiquimod-induced psoriasis in BALB/c mouse model assessed as improvement in clinical features of skin lesions pretreated with IMQ for 4 hrs followed by compound addition once daily from day 2 to 8; type: functional, organism-based; conditions: dose 0.3-1.2 %, time 7.0 day
RAW264.7 [36] = experiment: Anti-inflammatory activity against LPS induced mouse RAW264.7 cells assessed as reduction in IL-6 secretion incubated for 24 hrs by ELISA; type: functional, cell-based; conditions: RAW264.7, 24 h
[37] = Cytotoxicity against human HaCaT cells incubated for 24 hrs by CCK8 assay; type: toxicity, cell-based
[38] = Cytotoxicity against mouse RAW264.7 cells incubated for 24 hrs by CCK8 assay; type: toxicity, cell-based
[39] = Metabolic stability in monkey liver microsomes assessed as half-life preincubated for 2 hrs followed by NADPH regenerating agent addition and measured upto 4 hrs by LC-MS analysis; type: ADME, Macaca mulatta, Microsome; conditions: rhesus monkey, time < 6 hrs
[40] = AUC(0 to infinity) in ICR(CD-1) mouse at 10 mg/kg, po measured upto 24 hrs by LC-MS/MS analysis; type: ADME, organism-based; conditions: in vivo
[41] = Metabolic stability in mouse liver microsomes assessed as half-life preincubated for 2 hrs followed by NADPH regenerating agent addition and measured upto 4 hrs by LC-MS analysis; type: ADME, Microsome; conditions: time < 6 hrs
[42] = target: T1, 3',5'-cyclic-AMP phosphodiesterase 4D; experiment: Inhibition of PDE4D (unknown origin)

T1 sequence (Q08499 whole entry): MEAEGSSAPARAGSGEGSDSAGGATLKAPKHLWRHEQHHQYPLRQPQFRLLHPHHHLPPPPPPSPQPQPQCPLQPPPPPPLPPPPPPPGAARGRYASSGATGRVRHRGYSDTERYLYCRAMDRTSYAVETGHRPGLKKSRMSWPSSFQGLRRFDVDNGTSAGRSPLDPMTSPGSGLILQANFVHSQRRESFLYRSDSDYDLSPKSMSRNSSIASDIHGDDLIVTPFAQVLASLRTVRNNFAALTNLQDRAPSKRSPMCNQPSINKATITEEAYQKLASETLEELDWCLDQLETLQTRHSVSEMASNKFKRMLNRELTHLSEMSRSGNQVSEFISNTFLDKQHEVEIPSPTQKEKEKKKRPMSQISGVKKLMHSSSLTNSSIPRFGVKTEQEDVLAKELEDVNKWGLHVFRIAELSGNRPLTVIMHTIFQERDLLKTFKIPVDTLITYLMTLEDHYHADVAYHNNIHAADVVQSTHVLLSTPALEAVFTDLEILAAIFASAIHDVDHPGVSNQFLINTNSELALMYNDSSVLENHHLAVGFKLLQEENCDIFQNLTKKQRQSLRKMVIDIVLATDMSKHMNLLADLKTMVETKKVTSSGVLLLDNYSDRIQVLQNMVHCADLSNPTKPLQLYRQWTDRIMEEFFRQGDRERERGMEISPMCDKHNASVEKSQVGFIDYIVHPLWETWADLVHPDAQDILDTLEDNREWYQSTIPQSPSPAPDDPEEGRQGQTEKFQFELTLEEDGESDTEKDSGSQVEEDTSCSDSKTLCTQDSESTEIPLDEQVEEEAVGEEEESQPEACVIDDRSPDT
Chain of Cannabinoid receptor 1 (Homo sapiens) (P21554 whole entry): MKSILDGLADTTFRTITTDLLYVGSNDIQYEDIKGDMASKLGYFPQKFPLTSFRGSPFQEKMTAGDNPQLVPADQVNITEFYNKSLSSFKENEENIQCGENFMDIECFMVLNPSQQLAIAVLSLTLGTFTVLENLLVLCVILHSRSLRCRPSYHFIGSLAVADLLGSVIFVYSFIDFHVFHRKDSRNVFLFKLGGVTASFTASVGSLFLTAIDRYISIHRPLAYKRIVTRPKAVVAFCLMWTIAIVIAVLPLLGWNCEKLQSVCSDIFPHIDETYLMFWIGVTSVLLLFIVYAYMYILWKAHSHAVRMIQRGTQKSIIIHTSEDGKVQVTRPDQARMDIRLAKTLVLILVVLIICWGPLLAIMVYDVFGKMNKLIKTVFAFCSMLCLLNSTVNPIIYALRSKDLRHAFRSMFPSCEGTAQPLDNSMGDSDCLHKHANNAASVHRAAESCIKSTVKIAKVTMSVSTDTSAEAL
Chain of D(2) dopamine receptor (Homo sapiens) (P14416 whole entry): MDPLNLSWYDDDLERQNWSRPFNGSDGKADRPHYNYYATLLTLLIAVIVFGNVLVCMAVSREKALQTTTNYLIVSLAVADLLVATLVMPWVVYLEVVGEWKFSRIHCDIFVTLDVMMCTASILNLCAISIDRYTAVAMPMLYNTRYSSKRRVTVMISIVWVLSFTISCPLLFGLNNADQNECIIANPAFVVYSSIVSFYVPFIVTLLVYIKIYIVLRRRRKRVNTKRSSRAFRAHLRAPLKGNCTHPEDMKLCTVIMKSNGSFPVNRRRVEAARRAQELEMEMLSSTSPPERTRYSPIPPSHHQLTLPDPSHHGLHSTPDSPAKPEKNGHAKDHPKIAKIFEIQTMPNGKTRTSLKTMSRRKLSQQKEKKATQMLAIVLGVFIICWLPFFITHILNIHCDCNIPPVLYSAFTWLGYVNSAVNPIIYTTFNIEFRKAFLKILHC
Chain of 5-hydroxytryptamine receptor 1B (Homo sapiens) (P28222 whole entry): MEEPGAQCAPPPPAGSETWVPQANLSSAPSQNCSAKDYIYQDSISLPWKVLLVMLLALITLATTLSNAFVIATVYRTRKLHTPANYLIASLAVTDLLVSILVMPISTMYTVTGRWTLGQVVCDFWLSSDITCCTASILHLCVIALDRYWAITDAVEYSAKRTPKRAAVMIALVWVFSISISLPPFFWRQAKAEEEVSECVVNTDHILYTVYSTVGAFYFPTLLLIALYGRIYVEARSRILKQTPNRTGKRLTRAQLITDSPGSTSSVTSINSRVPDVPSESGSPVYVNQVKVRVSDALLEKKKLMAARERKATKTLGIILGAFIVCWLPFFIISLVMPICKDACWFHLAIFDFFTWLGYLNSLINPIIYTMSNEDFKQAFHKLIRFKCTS
Chain of 3',5'-cyclic-AMP phosphodiesterase 4A (P27815 whole entry): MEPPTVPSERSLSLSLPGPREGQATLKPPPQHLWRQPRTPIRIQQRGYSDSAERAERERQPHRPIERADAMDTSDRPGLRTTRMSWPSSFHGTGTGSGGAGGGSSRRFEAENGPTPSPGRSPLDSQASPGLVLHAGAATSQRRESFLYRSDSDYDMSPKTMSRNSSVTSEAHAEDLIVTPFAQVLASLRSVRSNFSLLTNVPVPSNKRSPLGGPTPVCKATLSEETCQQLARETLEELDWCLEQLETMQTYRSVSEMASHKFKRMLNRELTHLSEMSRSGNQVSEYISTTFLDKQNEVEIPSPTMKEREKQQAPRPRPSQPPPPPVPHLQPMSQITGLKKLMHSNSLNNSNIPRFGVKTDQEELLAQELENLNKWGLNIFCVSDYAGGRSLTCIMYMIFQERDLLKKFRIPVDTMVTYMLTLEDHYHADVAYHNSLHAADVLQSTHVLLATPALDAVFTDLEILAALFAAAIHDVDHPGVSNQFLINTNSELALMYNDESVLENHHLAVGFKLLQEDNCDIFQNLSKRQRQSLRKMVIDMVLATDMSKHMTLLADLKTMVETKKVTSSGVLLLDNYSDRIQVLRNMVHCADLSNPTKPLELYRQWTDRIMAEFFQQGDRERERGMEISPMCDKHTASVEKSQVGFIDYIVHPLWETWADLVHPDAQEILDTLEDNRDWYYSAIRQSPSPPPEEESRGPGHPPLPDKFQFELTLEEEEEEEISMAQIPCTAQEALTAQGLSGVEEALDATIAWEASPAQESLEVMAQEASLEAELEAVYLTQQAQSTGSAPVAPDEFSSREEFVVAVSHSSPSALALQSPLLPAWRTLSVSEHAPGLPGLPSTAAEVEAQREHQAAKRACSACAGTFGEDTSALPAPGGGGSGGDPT

IC50 [1]: 0.17 µM
Structure (SMILES): N#Cc1ccc(Oc2ccc3c(c2)COB3O)cc1 [CRISABOROLE]

clearance [5]: 135 mL/min/kg | half-life [6]: 25.3 min | Tmax [11]: 64.8 min | Cmax [14]: 31 ng/mL | IC50 [15]: 0.00711 µM | inhibition [16]: 51.4% | half-life [17]: 133 min | AUC(0-inf) [19]: 620 ng·h/mL | concentration at 1 h [20]: 0.34 ng/mL | half-life [21]: 296 min | half-life [22]: 62.1 min | concentration at 2 h [23]: 0.35 ng/mL | AUC(0-t) at 24 h [24]: 619 ng·h/mL | half-life [25]: 16.2 min | inhibition [26]: 56.6% | IC50 (RAW264.7 [27]): 34.2 µM | inhibition [28]: 53.8% | Vd [29]: 3.12 L/kg | AUC(0-t) at 24 h [30]: 41 ng·h/mL | C0 at 24 h [33]: 5240 ng/mL | bioavailability [34]: 3.31% | IC50 (RAW264.7 [36]): 40.9 µM | half-life [39]: 25.6 min | AUC(0-inf) [40]: 51 ng·h/mL | half-life [41]: 28.6 min
Structure (SMILES): O=C(NCc1ncccn1)c1csc(-c2ccc(OC(F)F)c(OCC3CC3)c2)n1
Activity (Mus musculus [2]): Active | Activity (RAW264.7 [3]): Active | Activity (Mus musculus [4]): Active | Activity (Mus musculus [7]): Active | Activity (RAW264.7 [8]): Active | Activity (Mus musculus [9]): Active | Activity (RAW264.7 [10]): Active | Activity [12]: Non-Toxic | Activity (RAW264.7 [13]): Active | Activity (RAW264.7 [18]): Active | IC50 (HaCaT): 38.6 µM | Activity (RAW264.7 [31]): Active | Activity (Mus musculus [32]): Active | Activity (Mus musculus [35]): Dose-Dependent Effect | CC50 at 24 h [37]: > 50 µM | CC50 at 24 h [38]: > 50 µM

IC50 [42]: 0.114 µM
Structure (SMILES): CCOc1cc([C@@H](CS(C)(=O)=O)N2C(=O)c3csc(NC(C)=O)c3C2=O)ccc1OC
